Laboratory results as given in patent US7615651B2, “Diaryl, dipyridinyl and aryl-pyridinyl derivatives and uses thereof” (Pfizer Inc., priority 2006, dated 2009).
Structures can show the parent of a compound that is named as a salt. Where two headings read alike, the source gives them in different places.

Tests used:
Type in all cases: biochemical
opioid receptor delta = molecular target: T1, opioid receptor delta (Homo sapiens, UniProt P41143); experiment: GTPγ[35S] binding assay, antagonism of BW-373U86
T1 construct: expressed in transfected cells
T1 sequence (P41143 whole entry): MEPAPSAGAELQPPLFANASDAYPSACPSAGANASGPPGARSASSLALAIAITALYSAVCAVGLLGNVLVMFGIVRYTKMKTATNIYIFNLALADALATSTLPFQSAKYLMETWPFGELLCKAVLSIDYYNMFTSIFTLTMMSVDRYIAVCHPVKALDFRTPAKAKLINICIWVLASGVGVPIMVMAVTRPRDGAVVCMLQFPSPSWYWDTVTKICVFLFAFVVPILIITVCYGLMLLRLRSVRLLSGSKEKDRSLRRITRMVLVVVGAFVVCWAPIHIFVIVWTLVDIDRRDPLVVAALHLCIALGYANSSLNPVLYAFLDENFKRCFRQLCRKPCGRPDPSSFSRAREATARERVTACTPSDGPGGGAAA
Protocol: (§1) Membranes were prepared from cells as described (Bass et al, 1996). GTPγ[5S] binding assays were performed in a 96 well FlashPlate™ format in duplicate using […] GTPγ[^35S] and 5 μg membrane per well in assay buffer composed of 50 mM Tris HCl, pH 7.4, 5 mM MgCl2, 1 mM EDTA, 100 mM NaCl, 30 μM GDP, 0.1% bovine serum albumin and the following protease inhibitors: 100 μg/ml bacitracin, 100 μg/ml benzamidine, 5 μg/ml aprotinin, 5 μg/ml leupeptin. The assay mix was then incubated at 30° C. with increasing concentrations of antagonist (10^−10 M to 10^−5 M) for 10 minutes and challenged with the agonists BW-373U86 (1 nM), dynorphin-A (10 nM), […] (1 μM) for opioid receptors delta, kappa, and mu, respectively. The assays were performed at 30° C. for one hour. The FlashPlates were then centrifuged at 2000×g for 10 minutes. Stimulation of GTPγ[^35S] binding was then quantified using a Wallac Microbeta and Ki calculations were done using Prism™ by Graphpad.

opioid receptor mu = molecular target: T2, opioid receptor mu (Homo sapiens, UniProt P35372); experiment: GTPγ[35S] binding assay, antagonism of endorphin
T2 construct: expressed in transfected cells
T2 sequence (P35372 whole entry): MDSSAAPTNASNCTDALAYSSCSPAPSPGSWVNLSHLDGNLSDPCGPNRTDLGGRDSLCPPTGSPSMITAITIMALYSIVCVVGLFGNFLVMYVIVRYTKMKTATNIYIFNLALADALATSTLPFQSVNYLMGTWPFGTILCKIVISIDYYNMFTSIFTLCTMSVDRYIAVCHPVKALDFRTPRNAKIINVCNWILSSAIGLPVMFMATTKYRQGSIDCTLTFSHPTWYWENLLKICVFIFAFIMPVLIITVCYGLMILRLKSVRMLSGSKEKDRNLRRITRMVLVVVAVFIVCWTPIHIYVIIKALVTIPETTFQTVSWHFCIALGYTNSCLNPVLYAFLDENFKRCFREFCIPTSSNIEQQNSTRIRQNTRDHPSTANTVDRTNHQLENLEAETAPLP
Protocol: as §1

opioid receptor kappa = molecular target: T3, opioid receptor kappa (Homo sapiens, UniProt P41145); experiment: GTPγ[35S] binding assay, antagonism of dynorphin-A
T3 construct: expressed in transfected cells
T3 sequence (P41145 whole entry): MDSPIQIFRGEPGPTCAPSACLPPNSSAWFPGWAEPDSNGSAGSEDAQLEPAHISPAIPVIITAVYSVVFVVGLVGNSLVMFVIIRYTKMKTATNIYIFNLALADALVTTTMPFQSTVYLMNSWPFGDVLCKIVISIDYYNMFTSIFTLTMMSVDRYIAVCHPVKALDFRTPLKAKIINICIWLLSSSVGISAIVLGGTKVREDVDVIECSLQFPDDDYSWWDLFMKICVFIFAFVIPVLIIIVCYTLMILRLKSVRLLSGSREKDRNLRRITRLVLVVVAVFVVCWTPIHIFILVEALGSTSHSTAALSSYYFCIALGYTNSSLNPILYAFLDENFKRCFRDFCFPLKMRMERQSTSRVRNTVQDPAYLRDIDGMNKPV
Protocol: as §1

[1] = read-out: Delta functional Ki (GTPγ[35S] binding)
[2] = read-out: Mu functional Ki (GTPγ[35S] binding)
[3] = read-out: Kappa functional Ki (GTPγ[35S] binding)
[4] = average Ki, antagonism of BW-373U86 (1 nM) at delta opioid receptor membranes, read-out: Delta functional Ki (GTPγ[35S] binding)
[5] = average Ki, antagonism of endorphin (1 μM) at mu opioid receptor membranes, read-out: Mu functional Ki (GTPγ[35S] binding)
[6] = average Ki, antagonism of dynorphin-A (10 nM) at kappa opioid receptor membranes, read-out: Kappa functional Ki (GTPγ[35S] binding)
[7] = average Ki, antagonism of BW-373U86 (1 nM) at delta opioid receptor, read-out: Delta functional Ki (GTPγ[35S] binding)
[8] = average Ki, antagonism of endorphin (1 μM) at mu opioid receptor, read-out: Mu functional Ki (GTPγ[35S] binding)
[9] = average Ki, antagonism of dynorphin-A (10 nM) at kappa opioid receptor, read-out: Kappa functional Ki (GTPγ[35S] binding)

Compound	Ki (opioid receptor delta; [1]) [nM]	Ki (opioid receptor mu; [2]) [nM]	Ki (opioid receptor kappa; [3]) [nM]	other results
Cc1cc(C(N)=O)cnc1-c1ccc(CNC2Cc3ccccc3C2)cc1 [4C-03]	0.822	0.201	0.982	–
Cc1cc(C(N)=O)cnc1-c1ccc(CNCCC(C)C)cc1 [4C-04]	–	–	–	Ki (opioid receptor delta; [4]): 21.9 nM; Ki (opioid receptor mu; [5]): 10.5 nM; Ki (opioid receptor kappa; [6]): 7.23 nM
CCOCCNCc1ccc(-c2cccc(C(N)=O)c2)c(Cl)c1 [6A-01]	–	–	–	Ki (opioid receptor delta; [4]): 25.5 nM; Ki (opioid receptor mu; [5]): 12.8 nM; Ki (opioid receptor kappa; [6]): 41.6 nM
NC(=O)c1cccc(-c2ccc(CNCCc3cscn3)cc2Cl)c1 [6A-02]	23.5	12.4	473	–
NC(=O)c1cccc(-c2ccc(CN[C@H]3c4ccccc4C[C@H]3O)cc2Cl)c1 [6A-03]	35.9	2.94	9.35	–
Cn1c(=O)n(C)c2cc(CNCc3ccc(-c4cccc(C(N)=O)c4)c(Cl)c3)ccc21 [6A-04]	–	–	–	Ki (opioid receptor delta; [4]): 32.3 nM; Ki (opioid receptor mu; [5]): 15 nM; Ki (opioid receptor kappa; [6]): 805 nM
Cc1cc(C)n(CC(C)NCc2ccc(-c3cccc(C(N)=O)c3)c(Cl)c2)n1 (stereo not drawn) [6A-05]	17.6	5.25	27.2	–
COCCNCc1ccc(-c2cccc(C(N)=O)c2)c(Cl)c1 [6A-07]	–	–	–	Ki (opioid receptor delta; [4]): 0.0652 nM; Ki (opioid receptor mu; [5]): 78.4 nM; Ki (opioid receptor kappa; [6]): 58.1 nM
Cc1ncsc1CCNCc1ccc(-c2cccc(C(N)=O)c2)c(Cl)c1 [6A-08]	4.92	8.62	32.1	–
CC(C)CCNCc1ccc(-c2cccc(-c3ncn[nH]3)c2)cc1 [7A-01]	26.1	8.31	8.43	–
CC(C)CCNCc1ccc(-c2cc(-c3ncn[nH]3)ccc2F)cc1 [7A-02]	–	–	–	Ki (opioid receptor delta; [4]): 5.26 nM; Ki (opioid receptor mu; [5]): 1.59 nM; Ki (opioid receptor kappa; [6]): 1.77 nM
CC(C)CCNCc1ccc(-c2cc(-c3ncn[nH]3)ccc2F)c(F)c1 [7A-03]	12.5	4.07	2.71	–
CC(C)CCNCc1ccc(-c2ccc(-c3ncn[nH]3)cc2)cc1 [7B-01]	311	10.3	35	–
Cc1cc(CNCCC(C)C)ccc1-c1ccc(-c2ncn[nH]2)cc1 [7B-02]	3.71	0.72	4.4	–
Cc1cc(-c2ncn[nH]2)ccc1-c1ccc(CNCCC(C)C)cc1F [7B-03]	28.2	1.7	9.25	–
CC(C)CCNCc1ccc(-c2ccc(-c3ncn[nH]3)cc2)c(F)c1 [7B-04]	8.08	2.53	13.6	–
CC(C)CCNCc1ccc(-c2ccc(-c3ncn[nH]3)cc2C(F)(F)F)cc1 [7B-05]	29.7	14.2	47.4	–
Cc1cc(CNCCC(C)C)ccc1-c1cccc(NS(C)(=O)=O)c1 [8A-02]	–	–	–	Ki (opioid receptor delta; [7]): 10.4 nM; Ki (opioid receptor mu; [8]): 1.15 nM; Ki (opioid receptor kappa; [9]): 15.3 nM
CC(C)CCNCc1ccc(-c2cccc(NS(C)(=O)=O)c2)c(C#N)c1 [8A-03]	–	–	–	Ki (opioid receptor delta; [7]): 18.4 nM; Ki (opioid receptor mu; [8]): 1.16 nM; Ki (opioid receptor kappa; [9]): 13.7 nM
CS(=O)(=O)Nc1ccc(-c2ccc(CNC3Cc4ccccc4C3)c(F)c2)cc1 [8B-02]	39.8	9.29	582	–
Cc1cc(C(N)=O)ccc1-c1ccc(CNCCC(C)C)cc1 [E4-02, (4′-carbamoyl-2′-methyl-biphenyl-4-ylmethyl)-(3-methyl-butyl)-ammonium chloride]	–	–	–	Ki (opioid receptor delta; read-out: Delta functional (GTPγ[35S] binding Ki)): 7.91 nM; Ki (opioid receptor mu; read-out: Mu functional (GTPγ[35S] binding Ki)): 6.2 nM; Ki (opioid receptor kappa; read-out: Kappa functional (GTPγ[35S] binding Ki)): 2.16 nM
Cc1cc(-c2nnc[nH]2)ccc1-c1ccc(C[NH2+]CCC(C)C)cc1 [E7-01, [2′-methyl-4′-(4H-[1,2,4]-triazol-3-yl)-biphenyl-4-ylmethyl]-(3-methyl-butyl)-amine hydrochloride]	11	3.9	13	–
Cc1cc(CNCCC(C)C)ccc1-c1ccc(NS(C)(=O)=O)cc1 [E8-01, (4′-Methenesulfonylamino-2-methyl-biphenyl-4-ylmethyl)-(3-methyl-butyl)-ammonium chloride]	32.6	42.1	281	–
